Molecules are shown by their SMILES.

The values that follow come from patent US8080377B2, “Method for confirming the exposure on chrysene” (Korea Institute of Science and Technology, priority 2008, dated 2011).

The nature of data set [1]: Cytotoxicity assay (MTT assay), chrysene treated 48 hours. The following applies: human, HepG2 cells; HepG2, MTT, 48 hours; read-out: IC20 (concentration exhibiting 80% cell survival rate). The class given is cell-based, human. How it is done: (§1) The human hepatoma cell line HepG2 (Korean Cell Line Bank) was cultured in DMEM (Gibco-BRL, USA) supplemented with 10% FBS in 100 mm dish until it grew 80%. The present inventors selected chrysene (Sigma-Aldrich, USA) among polycyclic aromatic hydrocarbons known to have carcinogenicity, based on the previous studies and reports. Chrysene was dissolved in DMSO. The concentration of vehicle was up to 0.1% in every experiment.
(§2) MTT assay with the HepG2 cell line was performed according to the method of Mossman et al. (J. Immunol. Methods, 65: 55-63, 1983). The cells were inoculated in a 24-well plate containing DMEM at the concentration of 4×10^5 cells/well, to which chrysene dissolved in DMSO was treated. 48 hours later, MTT (3-[4,5-dimethylthiazol-2-yl]-2,5-diphenyltetra zolium bromide) was added at the concentration of 5 mg/ml, followed by culture at 37° C. for 3 hours. Then, medium was eliminated and generated formazan crystal was dissolved in 500 μl of DMSO. The solution was aliquoted in a 96 well-plate and OD540 was measured. Cytotoxicity in the HepG2 cell line caused by chrysene was investigated. As a result, IC20 was 34.97 µM (see FIG. 1) and thus the concentration of chrysene for the further experiment was determined as the above.

Another data set deals with HepG2 cell line. The description is as above. Format: cell-based, human. Conditions: HepG2. The protocol:
as §1, §2

For data set [2] the following is noted: animal tests; cited from earlier work.

For `c1ccc2c(c1)ccc1c3ccccc3ccc21` [chrysene], the IC20 at 48 h in data set [1] turned out to be 35 µM. Besides, the “cytotoxicity in the human hepatoma cell line” value with HepG2 cell line is “demonstrated cytotoxicity”. Besides, in data set [2], the “absorption rate through skin” value is given as “very slow” and the “absorption via oral pathway” value is “absorbed”.
